The record followed here is ChEMBL document CHEMBL1201862, “PubChem BioAssay data set” (2004).

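48-hour exposure; five concentrations; linearly interpolated endpoints. Here, GI50 denotes the concentration required for 50% inhibition of growth.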 Active and inactive are the calls of the source. Cut-off read from the data, not from the text of the source: active = GI50 up to about 1.1 µM and inactive = higher.

Some test systems named below: NCI-H460; MOLT-4; K562; NCI-H522; NCI-H23; UACC-257; U-251; OVCAR-5; HCT-15; Hs-578T; 786-0; A498; RPMI-8226; LOX IMVI; SK-MEL-28; HT-29; SNB-75; NCI/ADR-RES; SK-MEL-2; HOP-62.
Holding throughout (test): growth of human tumour cells (NCI), 48 h

Take `O=C(O)C(F)(OC(F)(F)C(F)(F)C(F)(F)F)C(F)(F)F` (stereo not given): the GI50 in the test on NCI-H460, with MOLT-4, in the test on K562, in the test with NCI-H522, in the test with NCI-H23 and in the test with UACC-257 was > 100 µM (inactive) each time. Moreover, the GI50 with U-251 is > 100 µM (inactive); with OVCAR-5, > 100 µM (inactive); in the test with HCT-15, above 100 µM; in the test on Hs-578T, > 100 µM (inactive); in the test on 786-0, > 100 µM (inactive); in the test on A498, > 100 µM (inactive). In addition, the GI50 in the test with RPMI-8226, with LOX IMVI, in the test on SK-MEL-28, in the test with HT-29, with SNB-75 and in the test with NCI/ADR-RES was > 100 µM (inactive) each time. Moreover, the GI50 in the test with SK-MEL-2 and in the test on HOP-62 was > 100 µM (inactive) each time.
Take `O=C1Nc2ccccc2/C1=N/NC(=S)NCc1ccccn1`: the GI50 with NCI-H460 is 0.172 µM (active); in the test with MOLT-4, < 0.01 µM (active); in the test with K562, < 0.01 µM (active); in the test with NCI-H522, 0.17 µM (active); with NCI-H23, 0.533 µM (active); with UACC-257, 0.47 µM (active). In addition, the GI50 in the test with U-251 is 0.0724 µM (active); in the test on OVCAR-5 it was 10.5 µM (inactive); with HCT-15, 0.0326 µM; in the test with Hs-578T, 6.14 µM (inactive); in the test with 786-0 it was 0.355 µM (active); with A498, 2.25 µM (inactive). For the same molecule, the GI50 in the test on RPMI-8226 is < 0.01 µM (active); with LOX IMVI, 0.371 µM (active); with SK-MEL-28, 2.36 µM (inactive); in the test with HT-29, 0.0462 µM (active); with SNB-75, 0.454 µM (active); with NCI/ADR-RES, 0.418 µM (active). Moreover, the GI50 in the test on SK-MEL-2 is 2.9 µM (inactive); with HOP-62, 0.483 µM (active).
`N#C/C(=C\c1ccc2[nH]ccc2c1)C(=O)NCCCCNC(=O)/C(C#N)=C/c1ccc2[nH]ccc2c1`: the GI50 in the test with NCI-H460, in the test with MOLT-4, in the test on K562, in the test with NCI-H522, with NCI-H23 and in the test with UACC-257 was > 31.6 µM (inactive) each time. Further, the GI50 in the test with U-251 is > 31.6 µM (inactive); in the test with OVCAR-5, > 31.6 µM (inactive); in the test on HCT-15, above 31.6 µM; with Hs-578T, > 10 µM (inactive); in the test on 786-0, > 31.6 µM (inactive); with A498, > 31.6 µM (inactive). Besides, the GI50 in the test on RPMI-8226 was > 10 µM (inactive); in the test on LOX IMVI, > 31.6 µM (inactive); in the test with SK-MEL-28, > 31.6 µM (inactive); with HT-29 it was > 31.6 µM (inactive); in the test with SNB-75 it was > 31.6 µM (inactive); in the test on NCI/ADR-RES, > 10 µM (inactive). Also, the GI50 in the test on SK-MEL-2 and in the test with HOP-62 was > 31.6 µM (inactive) each time.
Regarding `CC1N(C)C(=O)OC12CCN(CCCC(=O)c1ccc(F)cc1)CC2` (stereo not given), the GI50 in the test with NCI-H460, in the test with MOLT-4, in the test with K562, with NCI-H522, in the test on NCI-H23 and in the test with UACC-257 was > 100 µM (inactive) each time. The GI50 in the test on U-251 was > 100 µM (inactive); in the test on OVCAR-5, > 100 µM (inactive); in the test with HCT-15, above 100 µM; in the test on Hs-578T it was > 100 µM (inactive); in the test with 786-0, > 100 µM (inactive); in the test with A498, > 100 µM (inactive). For the same molecule, the GI50 in the test on RPMI-8226, in the test with LOX IMVI, in the test on SK-MEL-28, with HT-29, in the test with SNB-75 and in the test on NCI/ADR-RES was > 100 µM (inactive) in each case. For the same molecule, the GI50 in the test on SK-MEL-2 and in the test with HOP-62 was > 100 µM (inactive) in each case.
For `CC1(CCc2ccccc2)CC1(Br)Br` (stereo not given), the GI50 with NCI-H460 is 34.1 µM (inactive); in the test on MOLT-4, 23.4 µM (inactive); in the test with K562, 19.5 µM (inactive); in the test on NCI-H522 it was 23 µM (inactive); in the test with NCI-H23 it was 43.9 µM (inactive); with UACC-257 it was 25.8 µM (inactive). In addition, the GI50 in the test on U-251 was 31.4 µM (inactive); with OVCAR-5, 32.6 µM (inactive); in the test on HCT-15 it was 54.8 µM; in the test with Hs-578T it was 42.9 µM (inactive); in the test on 786-0 it was 21 µM (inactive); with A498, 39.6 µM (inactive). Besides, the GI50 in the test with RPMI-8226 was 18.6 µM (inactive); in the test with LOX IMVI, 20.5 µM (inactive); with SK-MEL-28, > 100 µM (inactive); in the test on HT-29, 30.4 µM (inactive); in the test on SNB-75 it was 50.6 µM (inactive); in the test with NCI/ADR-RES it was 88.9 µM (inactive). The GI50 in the test on SK-MEL-2 is 17.8 µM (inactive); with HOP-62 it was 51.9 µM (inactive).
For the molecule `Cc1c2oc3c(C)cc(F)c(C(=O)NC4C(=O)NC(C(C)C)C(=O)N5CCCC5C(=O)N(C)CC(=O)N(C)C(C(C)C)C(=O)OC4C)c3nc-2c(C(=O)NC2C(=O)NC(C(C)C)C(=O)N3CCCC3C(=O)N(C)CC(=O)N(C)C(C(C)C)C(=O)OC2C)c(N)c1=O` (stereo not given), the GI50 in the test on NCI-H460 was 0.00179 µM (active); with MOLT-4, < 0.001 µM (active); in the test on K562, < 0.001 µM (active); in the test with NCI-H522 it was 0.00188 µM (active); in the test with NCI-H23, 0.105 µM (active); in the test with UACC-257, 0.00395 µM (active). Moreover, the GI50 is 0.00588 µM (active) in the test with U-251; 0.214 µM (active) in the test on OVCAR-5; 0.0805 µM with HCT-15; 0.298 µM (active) in the test on Hs-578T; 0.00512 µM (active) with 786-0; 0.161 µM (active) in the test on A498. The GI50 in the test with RPMI-8226 was < 0.001 µM (active); in the test on LOX IMVI it was 0.00255 µM (active); with SK-MEL-28 it was 0.0263 µM (active); in the test with HT-29, 0.00586 µM (active); in the test on SNB-75, 0.163 µM (active); in the test on NCI/ADR-RES, 4.65 µM (inactive). Also, the GI50 is 0.01 µM (active) in the test on SK-MEL-2 and 0.107 µM (active) in the test with HOP-62.
As to `O=[N+]([O-])c1ccc(C(Nc2ccccc2)c2ccc3cccnc3c2O)cc1` (stereo not given), the GI50 in the test with NCI-H460 was 3.24 µM (inactive); in the test on MOLT-4, 0.423 µM (active); with K562 it was 12.6 µM (inactive); with NCI-H522 it was 4.24 µM (inactive); in the test on NCI-H23, 11.5 µM (inactive); in the test on UACC-257, 13.8 µM (inactive). In addition, the GI50 was 3.55 µM (inactive) in the test on U-251; 8.2 µM (inactive) in the test with OVCAR-5; 4.26 µM with HCT-15; 19.6 µM (inactive) with Hs-578T; 4.37 µM (inactive) in the test with 786-0; 24.1 µM (inactive) with A498. Besides, the GI50 is 5.13 µM (inactive) with RPMI-8226; 6.5 µM (inactive) in the test on LOX IMVI; 40.6 µM (inactive) in the test with SK-MEL-28; 7.08 µM (inactive) with HT-29; 6.67 µM (inactive) with SNB-75; 3.67 µM (inactive) in the test on NCI/ADR-RES. Besides, the GI50 in the test on SK-MEL-2 is 24.3 µM (inactive); with HOP-62, 7.48 µM (inactive).
With `COC1=C(OC)C23CCc4ccc(OC)c(O)c4C2(CCN3)CC1=O` (stereo not given), the GI50 in the test on NCI-H460, in the test on MOLT-4, in the test with K562, in the test with NCI-H522, in the test with NCI-H23 and in the test with UACC-257 was > 100 µM (inactive) in each case. Besides, the GI50 in the test on U-251 was > 100 µM (inactive); with OVCAR-5, > 100 µM (inactive); in the test with HCT-15 it was above 100 µM; in the test on Hs-578T it was > 100 µM (inactive); in the test on 786-0 it was > 100 µM (inactive); in the test on A498 it was > 100 µM (inactive). The GI50 in the test on RPMI-8226, in the test with LOX IMVI, with SK-MEL-28, in the test on HT-29, with SNB-75 and in the test with NCI/ADR-RES was > 100 µM (inactive) in each case. Besides, the GI50 in the test on SK-MEL-2 and with HOP-62 was > 100 µM (inactive) in each case.
As for `O=C(Cn1c2ccc(Br)cc2c2nc3ccccc3nc21)NNC(=S)NC1CCCCC1`, the GI50 in the test with NCI-H460 was 12.4 µM (inactive); with MOLT-4, 10.7 µM (inactive); in the test on K562, 13.3 µM (inactive); in the test with NCI-H522 it was 14.5 µM (inactive); with NCI-H23, 14.4 µM (inactive); in the test on UACC-257, 16.4 µM (inactive). The GI50 in the test on U-251 was 15 µM (inactive); with OVCAR-5 it was 19.5 µM (inactive); in the test on HCT-15, 12 µM; with Hs-578T, 24.5 µM (inactive); in the test on 786-0, 15.5 µM (inactive); in the test on A498, 16.7 µM (inactive). For the same molecule, the GI50 is 13.9 µM (inactive) with RPMI-8226; 12.4 µM (inactive) with LOX IMVI; 14.7 µM (inactive) with SK-MEL-28; 15.5 µM (inactive) in the test with HT-29; 13.8 µM (inactive) in the test with SNB-75; 17.3 µM (inactive) in the test with NCI/ADR-RES. In addition, the GI50 in the test with SK-MEL-2 was 17.2 µM (inactive); in the test on HOP-62, 13.6 µM (inactive).
As for `O=C1Nc2ccccc2/C1=N/N1C(=O)/C(=C/c2ccccc2S)N=C1c1ccccc1`, the GI50 with NCI-H460 was 73.6 µM (inactive); in the test on MOLT-4, 19.5 µM (inactive); in the test on K562 it was 27.9 µM (inactive); with NCI-H522, 40.5 µM (inactive); in the test with NCI-H23, 57.7 µM (inactive); in the test with UACC-257, > 100 µM (inactive). The GI50 with U-251 was 67.6 µM (inactive); in the test on OVCAR-5, > 100 µM (inactive); in the test on HCT-15, 83 µM; with Hs-578T it was > 100 µM (inactive); with 786-0, 79.8 µM (inactive); in the test on A498, > 100 µM (inactive). The GI50 in the test with RPMI-8226 is 12.6 µM (inactive); in the test on LOX IMVI it was 44.9 µM (inactive); in the test on SK-MEL-28, > 100 µM (inactive); in the test with HT-29 it was > 100 µM (inactive); with SNB-75, > 100 µM (inactive); with NCI/ADR-RES, > 100 µM (inactive). For the same molecule, the figures for the GI50 in the test on SK-MEL-2 and with HOP-62 were 42.4 µM (inactive) and > 100 µM (inactive), respectively.
